Counter-ions that a name gives are not always drawn.
Biological target: T1, MRGPRX2 (Homo sapiens, UniProt Q96LB1)
T1 sequence (Q96LB1 1-330): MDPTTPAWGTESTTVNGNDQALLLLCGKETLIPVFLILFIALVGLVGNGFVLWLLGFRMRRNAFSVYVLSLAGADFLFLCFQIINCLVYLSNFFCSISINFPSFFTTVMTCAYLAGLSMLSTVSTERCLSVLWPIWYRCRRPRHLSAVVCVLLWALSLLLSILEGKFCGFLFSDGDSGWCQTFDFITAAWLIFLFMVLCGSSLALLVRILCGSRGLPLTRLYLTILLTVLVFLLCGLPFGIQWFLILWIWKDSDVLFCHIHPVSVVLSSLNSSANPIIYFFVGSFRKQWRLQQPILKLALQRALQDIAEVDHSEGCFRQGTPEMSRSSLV
Experiment: SPR, MRGPRX2 protein immobilised on CM5 chip
Type: binding

Structure (SMILES) | Kd [µM]
COC1=C[C@@H]2[C@@H]3Cc4ccc(OC)c(O)c4[C@]2(CCN3)CC1=O [M-3, N-demethylsinomenine] | 7.58
COC1=C[C@@H]2[C@@H]3Cc4ccc(OC)c(O)c4[C@]2(CCN3C)CC1=O [SH, sinomenine hydrochloride] | 0.681

From PMC11322065, “N-demethylsinomenine metabolite and its prototype sinomenine activate mast cells via MRGPRX2 and aggravate anaphylaxis” (Frontiers in Pharmacology, 2024)
